{"source": "patent US11684623B2", "about": "“Soluble melatonin tripartate adduct for the prevention and treatment of rare and severe eye sight-threatening conditions and neuro-ophthalmic disorders” (WORPHMED SRL, priority 2020, dated 2023)", "experiment": "Solubility in water according to USP and EP", "assay_type": "physicochemical", "excerpt": "wherein melatonin is complexed with adenosine and glycine. Adenosine is a purine nucleoside consisting of adenine attached to a ribofuranose moiety via a β-N9-glycosidic bond and the low-chain amino acid glycine is a C2 amino acid having a single hydrogen atom as its side chain.", "data": [{"smiles": "COc1ccc2[nH]cc(CCNC(C)=O)c2c1", "note": "[melatonin, N-acetyl-5-methoxytryptamine]", "values": [{"measurement": "Solubility in water, Results", "value": 0.1, "unit": "mg/1.0 ml"}]}]}
